Results reported in paper PMC11877502, “Cytotoxic Stilbenoids, Hetero- and Homodimers of Homoisoflavonoids from Prospero autumnale” (Journal of Natural Products, 2025).
Where two headings read alike, the source gives them in different places.

Assays:
[1] = tested on: DU145; experiment: MTS cytotoxicity assay; type: cell-based; details: Homo sapiens, DU-145, 48 h, triplicate
Protocol: (§1) Stock solutions of extracts and compounds were prepared by dissolving in DMSO (Sigma-Aldrich, no. D2650) at the concentrations of 100 mg/mL and 100 mM for extracts and compounds, respectively. […] Untreated cells were used as a control, while plain culture medium was used as a blank. Viability was determined with MTS Assay (Abcam #ab197010) according to the manufacturer’s instructions. Absorbance at 490 nm was measured with a spectrophotometer (Epoch, BioTek Instruments). Relative viability ratios were calculated with the equation given below, and IC50 values were determined in GraphPad Prism (version 8.0). [drawing 2]

[2] = tested on: HCT116; experiment: MTS cytotoxicity assay; type: cell-based; details: Homo sapiens, HCT-116, 48 h, triplicate
Protocol: as §1

[3] = tested on: HEP3B; experiment: MTS cytotoxicity assay; type: cell-based; details: Homo sapiens, 48 h, triplicate
Protocol: as §1

[4] = tested on: HEPG2; experiment: MTS cytotoxicity assay; type: cell-based; details: Homo sapiens, 48 h, triplicate, read-out: IC50 ± SEM HEPG2
Protocol: as §1

[5] = tested on: LoVo; experiment: MTS cytotoxicity assay; type: cell-based; details: Homo sapiens, 48 h, triplicate, read-out: IC50 ± SEM LoVo
Protocol: as §1

[6] = tested on: MCF7; experiment: MTS cytotoxicity assay; type: cell-based; details: Homo sapiens, 48 h, triplicate
Protocol: as §1

[7] = tested on: MDA-MB-231; experiment: MTS cytotoxicity assay; type: cell-based; details: Homo sapiens, 48 h, triplicate
Protocol: as §1

[8] = tested on: PC3; experiment: MTS cytotoxicity assay; type: cell-based; details: Homo sapiens, PC-3, 48 h, triplicate
Protocol: as §1

[9] = tested on: L929 nontumor mouse fibroblast cell line; experiment: MTS cytotoxicity assay, nontumor cell line; type: cell-based; details: 48 h, triplicate
Protocol: as §1

[10] = tested on: human cancer cell lines (HCT116, LoVo, DU145, PC3, HEP3B, HEPG2, MCF7, MDA-MB-231); experiment: MTS cytotoxicity assay, panel statements; type: cell-based; details: 48 h, span over compounds and cell lines, read-out: IC50 toward one or more cancer cell lines
Protocol: as §1

[11] = tested on: DU145; experiment: Annexin V/propidium iodide staining; type: cell-based, human; details: 48 h at IC50 concentration, flow cytometry
Protocol: (§2) Apoptosis, necrosis, and viability were analyzed by Annexin V-FITC and […] (PI) staining. For this purpose, cells were seeded at 5 × 10^5 cells per 60 mm dish and incubated overnight to allow attachment. Then, cells were treated with the selected compounds (1, 2, 4, and 10) for 48 h at respective IC50 concentrations. For flow cytometric analysis, cells were detached with Trypsin-EDTA solution (Thermo Fisher Scientific #25200056), washed with Dulbecco’s phosphate buffered saline (DPBS, Thermo Fisher Scientific #14190094) solution, and suspended in 1 mL of ice-cold Annexin V Binding Buffer (BioLegend #422201). Cells were then stained with 1 μL of Annexin V-FITC (Biovision #1001) and 1 μL PI (Thermo Fisher Scientific # P1304MP, diluted to 250 μg/mL in DPBS) by incubating cells on ice for 15 min in the dark. Cells were then immediately analyzed on a Beckman Coulter DxFLEX flow cytometry system. Each analysis was performed in triplicate, and 25 × 10^3 events were counted for each tube. Evaluations were done with CytEXPERT software.

[12] = tested on: PC3; experiment: Annexin V/propidium iodide staining; type: cell-based, human; details: 48 h at IC50 concentration, flow cytometry
Protocol: as §2

[13] = tested on: LoVo; experiment: Annexin V/propidium iodide staining; type: cell-based, human; details: 48 h at IC50 concentration, flow cytometry
Protocol: (§3) Apoptosis, necrosis, and viability were analyzed by Annexin V-FITC and […] (PI) staining. For this purpose, cells were seeded at 5 × 10^5 cells per 60 mm dish and incubated overnight to allow attachment. […] Cells were then immediately analyzed on a Beckman Coulter DxFLEX flow cytometry system. Each analysis was performed in triplicate, and 25 × 10^3 events were counted for each tube. Evaluations were done with CytEXPERT software.

[14] = tested on: LoVo; experiment: DNA content (cell cycle) analysis; type: cell-based, human; details: 48 h, DNA content by flow cytometry
Protocol: (§4) To investigate cell cycle progression, cells were seeded as 5 × 10^5 cells per 60 mm dish and incubated overnight for attachment. After incubating with the selected compounds for 48 h, cells were detached with Trypsin-EDTA, washed once with DPBS, and fixed with ice-cold 70% EtOH by storing tubes at 4 °C for an hour. Then, EtOH was discarded by centrifuging cells, and the pellet was suspended in 500 μL cell cycle kit reagent (Beckman Coulter #C03551). Tubes were incubated at room temperature under the dark for 30 min. The experiment was done on triplicate, and 5 × 10^4 cells per test were acquired at a medium flow rate with the Beckman Coulter DxFLEX flow cytometry system. Analyses were performed with ModFit LT version 4.0.

[15] = tested on: PC3; experiment: DNA content (cell cycle) analysis; type: cell-based, human; details: 48 h, DNA content by flow cytometry
Protocol: as §4

[16] = tested on: HCT116; experiment: Annexin V/propidium iodide staining; type: cell-based, human; details: 48 h at IC50 concentration, flow cytometry
Protocol: as §2

[17] = tested on: HEPG2; experiment: Annexin V/propidium iodide staining; type: cell-based, human; details: 48 h at IC50 concentration, flow cytometry
Protocol: as §2

[18] = tested on: MCF7; experiment: Annexin V/propidium iodide staining; type: cell-based, human; details: 48 h at IC50 concentration, flow cytometry
Protocol: as §2

[19] = tested on: MDA-MB-231; experiment: Annexin V/propidium iodide staining; type: cell-based, human; details: 48 h at IC50 concentration, flow cytometry
Protocol: as §3

[20] = tested on: HCT116; experiment: DNA content (cell cycle) analysis; type: cell-based, human; details: 48 h, DNA content by flow cytometry
Protocol: as §4

[21] = tested on: HEPG2; experiment: DNA content (cell cycle) analysis; type: cell-based, human; details: 48 h, DNA content by flow cytometry
Protocol: as §4

[22] = tested on: MCF7; experiment: DNA content (cell cycle) analysis; type: cell-based, human; details: 48 h, DNA content by flow cytometry
Protocol: as §4

[23] = tested on: MDA-MB-231; experiment: DNA content (cell cycle) analysis; type: cell-based, human; details: 48 h, DNA content by flow cytometry
Protocol: as §4

[24] = tested on: HEP3B; experiment: Annexin V/propidium iodide staining; type: cell-based, human; details: 48 h at IC50 concentration, flow cytometry
Protocol: as §2

[25] = tested on: HEP3B; experiment: DNA content (cell cycle) analysis; type: cell-based, human; details: 48 h, DNA content by flow cytometry
Protocol: as §4

[26] = read-out: IC50 ± SEM MDA-MB-231

SMILES | IC50 ([1]; read-out: IC50 ± SEM DU145) | IC50 ([2]; read-out: IC50 ± SEM HCT116) | IC50 ([3]; read-out: IC50 ± SEM HEP3B) | IC50 [4] | IC50 [5] | IC50 ([6]; read-out: IC50 ± SEM MCF7) | IC50 [7, 26] | IC50 ([8]; read-out: IC50 ± SEM PC3) | IC50 ([9]; read-out: IC50 ± SEM L929) | IC50 [10] | apoptosis/necrosis vs control, LoVo [13] | cell cycle effect, LoVo [14] | other results
COc1cc(/C=C/c2ccc(O)cc2)cc(O)c1C [Compound 1, 3,4′-dihydroxy-4-methyl-5-methoxystilbene] | 29.7 ± 4.4 µM | 54.6 ± 5.5 µM | 59.8 ± 4.2 µM | 37.6 ± 5.3 µM | 10.6 ± 0.5 µM | 53.5 ± 9.1 µM | 79.6 ± 5.6 µM | 21.3 ± 2.1 µM | 33.7 ± 3.9 µM | 8.2 to 37.6 µM | apoptosis along with necrosis | S phase arrest | apoptosis/necrosis vs control, DU145 [11]: promoting apoptosis and necrosis; apoptosis/necrosis vs control, PC3 [12]: promoting apoptosis and necrosis; cell cycle effect, PC3 [15]: S phase arrest
COc1cc(/C=C/c2cc(O)c(C)c(O)c2)ccc1O [Compound 3, scillabene A] | > 100 µM | > 100 µM | 82.7 ± 3.9 µM | > 100 µM | 83.4 ± 3.9 µM | > 100 µM | > 100 µM | > 100 µM | > 100 µM |  |  |  | 
COc1ccc([C@H]2c3c(/C=C/c4ccc(O)cc4)cc(OC)c(C)c3O[C@@H]3Oc4cc(O)cc(O)c4C(=O)[C@@H]32)cc1 [Compound 10, prosperin C] | 40.1 ± 2.8 µM | 19.3 ± 3.1 µM | 59.9 ± 6.9 µM | 24 ± 2.2 µM | 16.7 ± 0.8 µM | 25.2 ± 5.1 µM | 25.5 ± 2.4 µM | 36.7 ± 2.5 µM | 29.7 ± 1.7 µM | 8.2 to 37.6 µM | apoptosis along with necrosis | G0/G1 phase arrest | apoptosis/necrosis vs control, HCT116 [16]: significant increase in apoptosis; apoptosis/necrosis vs control, HEPG2 [17]: higher late apoptosis and necrosis; apoptosis/necrosis vs control, MCF7 [18]: increased apoptosis and necrosis; apoptosis/necrosis vs control, MDA-MB-231 [19]: increased apoptosis and necrosis; cell cycle effect, HCT116 [20]: G0/G1 phase arrest; cell cycle effect, HEPG2 [21]: slight S phase decrease; cell cycle effect, MCF7 [22]: G0/G1 phase arrest; cell cycle effect, MDA-MB-231 [23]: G0/G1 phase arrest
O=C1/C(=C/c2ccc(O)cc2)COc2cc(O)cc(O)c21 [Compound 4, (E)-4′-O-demethyleucomin] | > 100 µM | 45.8 ± 8.4 µM | 33.7 ± 3 µM | > 100 µM | 40.4 ± 2.9 µM | 95.3 ± 4.7 µM | 77.5 ± 3.9 µM | 88.1 ± 8.6 µM | > 100 µM | 8.2 to 37.6 µM |  |  | apoptosis/necrosis vs control, HEP3B [24]: significantly increased early apoptosis along with necrosis; cell cycle effect, HEP3B [25]: G2/M phase arrest
COc1c(O)c(OC)c2c(c1O)OC[C@@H](Cc1ccc(O)cc1)C2=O [Compound 7, 3R-(4′-hydroxybenzyl)-6,8-dihydroxy-5,7-dimethoxy-4-chromanone] | > 100 µM | > 100 µM | > 100 µM | > 100 µM | > 100 µM | > 100 µM | > 100 µM | > 100 µM | > 100 µM |  |  |  | 
COc1cc(O)cc(/C=C/c2ccc(O)cc2)c1 [Compound 2, pinostilbene] | > 100 µM | 71.3 ± 12.6 µM | 93.5 ± 8.9 µM | 51.8 ± 10 µM | 8.2 ± 0.4 µM | 95.7 ± 15 µM | 23.3 ± 1.4 µM | 88.7 ± 10.9 µM | 13.4 ± 1.7 µM | 8.2 to 37.6 µM | apoptosis along with necrosis | S phase arrest | apoptosis/necrosis vs control, MDA-MB-231 [19]: more efficient in inducing apoptosis compared to 10; cell cycle effect, MDA-MB-231 [23]: S phase arrest
COc1cccc2c1C(=O)c1c(O)c3c(c(O)c1C2=O)C[C@@](O)(C(=O)CO)C[C@@H]3O[C@H]1C[C@H](N)[C@H](O)[C@H](C)O1 [doxorubicin, reference compound] | 5.9 ± 0.4 µM | 0.9 ± 0.1 µM | 1.1 ± 0.1 µM |  | 2.4 ± 0.2 µM | 2.3 ± 0.3 µM | 2.3 ± 0.3 µM | 0.9 ± 0.1 µM | > 100 µM |  |  |  | IC50 ([1]; read-out: IC50 ± SEM DU145, extract/fraction): 5.93 ± 0.38 µg/mL; IC50 ([2]; read-out: IC50 ± SEM HCT116, extract/fraction): 0.86 ± 0.14 µg/mL; IC50 ([3]; read-out: IC50 ± SEM HEP3B, extract/fraction): 1.1 ± 0.07 µg/mL; IC50 ([6]; read-out: IC50 ± SEM MCF7, extract/fraction): 2.32 ± 0.28 µg/mL; IC50 ([7]; read-out: IC50 ± SEM MDA-MB-231, extract/fraction): 2.33 ± 0.33 µg/mL; IC50 ([8]; read-out: IC50 ± SEM PC3, extract/fraction): 0.88 ± 0.08 µg/mL; IC50 ([9]; read-out: IC50 ± SEM L929, extract/fraction): > 100 µg/mL
COc1ccc(C(c2c(O)cc3c(c2O)C(=O)/C(=C/c2ccc(O)cc2)CO3)c2coc3cc(O)cc(O)c3c2=O)cc1 (stereo not shown) [Compound 9, prosperin B] | > 100 µM | 75.8 ± 8 µM | > 100 µM | > 100 µM | > 100 µM | > 100 µM | > 100 µM | > 100 µM | > 100 µM |  |  |  | 
